Assay results: patent US20110144125A1, “Anti-Arrhythmia Agents, Methods of Their Use, Methods of Their Identification and Kits Therefore” (THE UAB RESEARCH FOUNDATION, priority 2008, published 2011)
Values joined by “and” are separate entries in the source; they are usually repeats but may differ in a detail not shown here. Equal values may be shown once. “Also recorded” adds a separate entry of the source. Read-outs that look alike come from different tables or passages of the source.

Columns and labels:
rat left atria = assay: Spontaneous tachycardic activity (STA) in isolated rat left atria exposed to 2-APB under increased calcium load
Protocol: (§1) Male Sprague-Dawley rats (325-400 g) were anesthetized with intra-peritoneal pentobarbital (0.1 g/kg). Their right and left atria were isolated, superfused at 30° C. in Krebs-Henseleit buffer, and nearly isometric forces of contraction were measured from these muscles (Wolkowicz et al., 2002). 2-APB was prepared as a 150 mM dimethyl sulfoxide stock.
Left atria (n=8 per group) were paced at 3 Hz and (i) titrated with 0 to 30 nM isoproterenol (Ahlquist, 1970) or (ii) exposed to 3 μM forskolin (Laurenza et al., 1980). Left atrial force and frequency of contraction, the time to peak tension and relaxation times were recorded after a 3-5 min exposure to forskolin or to any concentration of isoproterenol. The 3 Hz pacing stimulus was interrupted at the end of these protocols to measure SMEs.
Left atria (n=10 per group) were paced at 0.1 Hz and treated with (i) 20 μM 2-APB for 10 min, (ii) with 30 nM isoproterenol for 5 min followed by 20 μM 2-APB for 10 min, and (iii) with 3 μM forskolin for 5 min followed by 20 μM 2-APB for 10 min.
Left atrial contraction and relaxation times were recorded at these five times, the pacing stimulus was stopped and rates of SMA were recorded. To determine whether initial pacing rate affects left atrial response to 2-APB and isoproterenol, left atria (n=5-7 per group) were paced at 3 Hz and (i) remained untreated for 15 min, (ii) were treated with 20 μM 2-APB alone for 10 min, or (ii) were treated with 30 nM isoproterenol for 5 min followed by 20 μM 2-APB for 10 min. Atrial mechanical function was measured at these four times; the pacing stimulus then was stopped and rates of SMA were recorded.
Left atria (n=6 per group) were paced at 3 Hz, titrated with 0 to 300 nM (−)BayK 8644 ([…]-1,4-Dihydro-2,6-dimethyl-5-nitro-4-[2-(trifluormethyl)phenyl]-3-pyridinecarboxylic acid methyl ester; Franckowiak et al. 1985) or FPL-64176 ((2,5-Dimethyl-4-[2-(phenylmethyl)benzoyl]-111-pyrrole-3-carboxylic acid methyl ester; Zheng et al., 1991) and their mechanical function and rates of SMA were recorded after a 5 min exposure to any concentration of slow calcium channel activator.
Left atria (n=8 per group) were paced at 0.1 Hz, exposed to 300 nM BayK 8644 or FPL-64176 for 5 min followed by 20 μM 2-APB for 10 min. Atrial mechanical function was recorded at this time; the pacing stimulus then was stopped and rates of SMA were recorded.
To test whether ryanodine receptor calcium leak produces SMA, left atria (n=6 per group) were paced at 0.1 Hz, treated with 0 or 300 nM BayK 8644 for 5 min, and then exposed to 600 nM ryanodine (Sutko et al., 1997). Atrial mechanical function and rates of SMA were recorded 20 min after exposure to ryanodine.
Rates of SMA were measured 5 min later.
Left atria (n=7) were paced at 3 Hz, treated with 120 μM ouabain (Illanes and Marshall, 1964), and any change in mechanical function was recorded at a new steady state, ˜10 min later. These atria were exposed to 20 μM 2-APB and their mechanical function and rates of SMA were recorded 10 min later.
3 Hz-paced left atria (n=9 per group) were superfused (i) in Krebs-Henseleit alone or (ii) they were treated with 20 μM 2-APB for 10 min, (iii) with 300 nM BayK 8644 for 10 min and with 20 μM 2-APB for 10 min, or (iv) they were treated with 300 nM BayK 8644 and 20 μM 2-APB for 10 min, then with 70 μM zatebradine (3-[3-[[2-(3,4-Dimethoxyphenyl)ethyl]methylamino] propyl]-1,3,4,5-tetrahydro-7,8,-dimethoxy-2H-3-benzazepin-2-one hydrochloride) for 10 min (Baruscotti et al., 2005). Pacing was interrupted at these times and rates of SMA were recorded.

rat right atria = assay: Right atrial spontaneous (pacemaker-driven) contraction frequency; conditions: 30 nM isoproterenol
Protocol: as §1
Left atria (n=9) were paced at 0.1 Hz, treated with 300 nM BayK 8644 for 5 min, then with 20 μM 2-APB for 10 min, and the pacing stimulus was stopped. These preparations then were incubated with six increasing concentrations of zatebradine (10-100 μM) for 3-5 min at each concentration, and rates of SMA were recorded. Untreated right atria (n=9) also were titrated with zatebradine and its effect on contraction frequency was recorded.
To test whether zatebradine affects the SMA occurring in the presence of 2-APB and isoproterenol, left atria (n=7) were paced at 0.1 Hz, treated with 30 nM isoproterenol for 5 min, then with 20 μM 2-APB for 10 min, and the pacing stimulus was stopped. Rates of SMA were recorded, these left atria were exposed to 70 μM zatebradine for 10 min, and rates of SMA were recorded again. A group of right atria (n=7) also were exposed to 30 nM isoproterenol for 5 min and then to 70 μM zatebradine for 10 min. Right atrial contraction frequency was recorded at these two times.
To test whether ZD-7288 (4-Ethylphenyl amino-1,2-dimethyl-6-methylaminopyridinium chloride), an If inhibitor structurally unrelated to zatebradine (Baruscotti et al., 2005; Sanders et al., 2006) affects the SMA occurring in the presence of 2-APB and BayK 8644, rat left atria (n=7) were treated with 300 nM BayK 8644 for 5 min, then with 20 μM 2-APB for 10 min, and the rates of SMA were recorded. These atria then were incubated with six increasing concentrations of ZD-7288 (10-100 μM) for 3-5 min at each concentration, and the rates of SMA were recorded. Right atria (n=7) were titrated similarly with ZD-7288 (0-100 μM) and the change in their contraction frequency was recorded.

[1] = test system: right ventricular muscle strips and right or left ventricular papillary muscles; assay: Ventricular muscle model of SMA and STA; parameters: species or system rat; conditions: paced at 0.5 Hz, added to the superfusate in appropriate amounts
Source text: To further establish this model as a general test for arrhythmic and anti-arrhythmic agents, right ventricular muscle strips and right or left ventricular papillary muscles were isolated from anesthetized rats as cardiac muscle exemplars using methods known to persons skilled in the art. Additional exemplars could include ventricular or atrial conduction system cells and the SAN itself. These muscles were then superfused as described above and paced at 0.5 Hz.

[2] = test system: isolated atrial and ventricular muscle; conditions: >20 μM 2-APB with an agent that increases myocyte calcium load
Protocol: Specifically, isolated, superfused heart muscle, atrial or ventricular, treated with an appropriate concentration of 2-APB (>20 μM) and with an agent that increases myocyte calcium load was exposed to external pacing that stimulates the muscle at a physiological rate and with strength just sufficient to capture it.

[3] = 20 μM 2-APB plus 30 nM isoproterenol, 3 μM forskolin, 300 nM BayK 8644, 300 nM FPL-64176 or 120 μM ouabain, absence of pacing, 30° C.

In the case of ryanodine, the “STA after depletion of ryanodine-sensitive calcium stores” value (rat left atria; BayK 8644 and 2-APB, then 600 nM ryanodine) is reported as “persists; also recorded: does not terminate STA”.

For `C[C@@H]1O[C@@H](O[C@H]2C[C@@H](O)[C@]3(CO)[C@H]4[C@H](O)C[C@]5(C)[C@@H](C6=CC(=O)OC6)CC[C@]5(O)[C@@H]4CC[C@]3(O)C2)[C@H](O)[C@H](O)[C@H]1O` [ouabain], the “rate of STA (SMA frequency) in presence of 2-APB and calcium loading agent” value (shortened to “rate of STA … of 2-APB and calcium loading agent”) (rat left atria; [3]) was 202±5.6 contractions/min.

For `CC(C)NCC(O)c1ccc(O)c(O)c1` (stereo not shown) [isoproterenol], the “rate of STA … of 2-APB and calcium loading agent” value (rat left atria; [3]) was ~230 contractions/min and 239±11 contractions/min and 225±3.6 contractions/min and the “right atrial contraction frequency” value (rat right atria) was 276±11.4 contractions/min.

For `COC(=O)c1c(C)[nH]c(C)c1C(=O)c1ccccc1Cc1ccccc1` [FPL-64176, 2,5-Dimethyl-4-[2-(phenylmethyl)benzoyl]-111-pyrrole-3-carboxylic acid methyl ester], the “rate of STA … of 2-APB and calcium loading agent” value (rat left atria) was 222±9 contractions/min.

For `COC(=O)C1=C(C)NC(C)=C([N+](=O)[O-])[C@H]1c1ccccc1C(F)(F)F` [BayK 8644, (45)-1,4-Dihydro-2,6-dimethyl-5-nitro-4-[2-(trifluormethyl)phenyl]-3-pyridinecarboxylic acid methyl ester], the “rate of STA … of 2-APB and calcium loading agent” value (rat left atria) was 227±10 contractions/min.

With `NCCOB(c1ccccc1)c1ccccc1` [2-APB, 2-aminoethoxydiphenyl borate] the “rate of STA post-washing” value (rat left atria) was 0.7±0.4 contractions/min, the “rate of STA pre-washing” value (rat left atria) was 224±12 contractions/min and the “ventricular SMA” value [1] was “ventricular SMA was observed”. For the same compound, the “mechanical activity under physiological-rate pacing” value [2] was “disorganized, fibrillation-like mechanical activity”.
